In ChEMBL document CHEMBL4619712, “Double-component diazeniumdiolate derivatives as anti-cancer agents” (Bioorg Med Chem, 2020):
Calls of active or inactive are those of the source. No cut-off for these calls is given here.

How the values were obtained:
[1] = test system: CCRF-CEM; test: Induction of apoptosis in human CCRF-CEM cells assessed as necrotic cells at 8 uM after 8 hrs by Annexin V/propidium iodide staining based flow cytometry (reference value: 0.11%); assay type: functional
[2] = target: T1, c-Jun N-terminal kinase, JNK (Homo sapiens) (UniProt P45983+P53779+P45984); test: Activation of JNK in human CCRF-CEM cells assessed as increase in JNK level at 8 uM incubated for 1 to 6 hrs by Western blot analysis; assay type: cell-based
[3] = test system: CCRF-CEM; test: Induction of apoptosis in human CCRF-CEM cells assessed as viable cells at 8 uM after 8 hrs by Annexin V/propidium iodide staining based flow cytometry (reference value: 90.4%); assay type: functional; settings: read-out: Activity
[4] = test system: CCRF-CEM; test: Induction of apoptosis in human CCRF-CEM cells assessed as early apoptotic cells at 8 uM after 8 hrs by Annexin V/propidium iodide staining based flow cytometry (reference value: 0.87%); assay type: functional
[5] = test system: CCRF-CEM; test: Induction of apoptosis in human CCRF-CEM cells assessed as late apoptotic cells at 8 uM after 8 hrs by Annexin V/propidium iodide staining based flow cytometry (reference value: 8.60%); assay type: functional
[6] = test system: CCRF-CEM; test: Induction of apoptosis in human CCRF-CEM cells assessed as necrotic cells at 8 uM after 24 hrs by Annexin V/propidium iodide staining based flow cytometry (reference value: 0.11%); assay type: functional
[7] = test system: CCRF-CEM; test: Induction of apoptosis in human CCRF-CEM cells assessed as viable cells at 8 uM after 24 hrs by Annexin V/propidium iodide staining based flow cytometry (reference value: 90.4%); assay type: functional; settings: read-out: Activity
[8] = test system: CCRF-CEM; test: Induction of apoptosis in human CCRF-CEM cells assessed as early apoptotic cells at 8 uM after 24 hrs by Annexin V/propidium iodide staining based flow cytometry (reference value: 0.87%); assay type: functional
[9] = test system: CCRF-CEM; test: Induction of apoptosis in human CCRF-CEM cells assessed as late apoptotic cells at 8 uM after 24 hrs by Annexin V/propidium iodide staining based flow cytometry (reference value: 8.60%); assay type: functional
[10] = test system: CCRF-CEM; test: Induction of apoptosis in human CCRF-CEM cells assessed as necrotic cells at 8 uM after 48 hrs by Annexin V/propidium iodide staining based flow cytometry (reference value: 0.11%); assay type: functional
[11] = test system: CCRF-CEM; test: Induction of apoptosis in human CCRF-CEM cells assessed as viable cells at 8 uM after 48 hrs by Annexin V/propidium iodide staining based flow cytometry (reference value: 90.4%); assay type: functional; settings: read-out: Activity
[12] = test system: CCRF-CEM; test: Induction of apoptosis in human CCRF-CEM cells assessed as early apoptotic cells at 8 uM after 48 hrs by Annexin V/propidium iodide staining based flow cytometry (reference value: 0.87%); assay type: functional
[13] = test system: CCRF-CEM; test: Induction of apoptosis in human CCRF-CEM cells assessed as late apoptotic cells at 8 uM after 48 hrs by Annexin V/propidium iodide staining based flow cytometry (reference value: 8.60%); assay type: functional
[14] = test system: CCRF-CEM; test: (§1) Induction of apoptosis in human CCRF-CEM cells assessed as necrotic cells at 8 uM after 72 hrs by Annexin V/propidium iodide staining based flow cytometry (reference value: 0.11%); assay type: functional
[15] = test system: CCRF-CEM; test: Induction of apoptosis in human CCRF-CEM cells assessed as decrease in Bcl-2 level at 8 uM by Western blot analysis; assay type: functional, cell-based; settings: TDE = time-dependent effect
[16] = test system: CCRF-CEM; test: (§2) Induction of apoptosis in human CCRF-CEM cells assessed as viable cells at 8 uM after 72 hrs by Annexin V/propidium iodide staining based flow cytometry (reference value: 90.4%); assay type: functional; settings: read-out: Activity
[17] = test system: CCRF-CEM; test: (§3) Induction of apoptosis in human CCRF-CEM cells assessed as early apoptotic cells at 8 uM after 72 hrs by Annexin V/propidium iodide staining based flow cytometry (reference value: 0.87%); assay type: functional
[18] = test system: CCRF-CEM; test: (§4) Induction of apoptosis in human CCRF-CEM cells assessed as late apoptotic cells at 8 uM after 72 hrs by Annexin V/propidium iodide staining based flow cytometry (reference value: 8.60%); assay type: functional
[19] = test system: CCRF-CEM; test: Induction of apoptosis in human CCRF-CEM cells assessed as necrotic cells at 2 uM after 72 hrs by Annexin V/propidium iodide staining based flow cytometry (reference value: 0.11%); assay type: functional
[20] = test system: CCRF-CEM; test: Induction of apoptosis in human CCRF-CEM cells assessed as viable cells at 2 uM after 72 hrs by Annexin V/propidium iodide staining based flow cytometry (reference value: 90.4%); assay type: functional; settings: read-out: Activity
[21] = test system: CCRF-CEM; test: Induction of apoptosis in human CCRF-CEM cells assessed as early apoptotic cells at 2 uM after 72 hrs by Annexin V/propidium iodide staining based flow cytometry (reference value: 0.87%); assay type: functional
[22] = test system: CCRF-CEM; test: Induction of apoptosis in human CCRF-CEM cells assessed as late apoptotic cells at 2 uM after 72 hrs by Annexin V/propidium iodide staining based flow cytometry (reference value: 8.60%); assay type: functional
[23] = test system: CCRF-CEM; test: Induction of apoptosis in human CCRF-CEM cells assessed as necrotic cells at 4 uM after 72 hrs by Annexin V/propidium iodide staining based flow cytometry (reference value: 0.11%); assay type: functional
[24] = test system: CCRF-CEM; test: Induction of apoptosis in human CCRF-CEM cells assessed as viable cells at 4 uM after 72 hrs by Annexin V/propidium iodide staining based flow cytometry (reference value: 90.4%); assay type: functional; settings: read-out: Activity
[25] = test system: CCRF-CEM; test: Induction of apoptosis in human CCRF-CEM cells assessed as early apoptotic cells at 4 uM after 72 hrs by Annexin V/propidium iodide staining based flow cytometry (reference value: 0.87%); assay type: functional
[26] = test system: CCRF-CEM; test: Induction of apoptosis in human CCRF-CEM cells assessed as late apoptotic cells at 4 uM after 72 hrs by Annexin V/propidium iodide staining based flow cytometry (reference value: 8.60%); assay type: functional
[27] = test system: CCRF-CEM; test: as §1; assay type: functional; remark: listed apart in the source
[28] = test system: CCRF-CEM; test: as §2; assay type: functional; settings: read-out: Activity; remark: listed apart in the source
[29] = test system: CCRF-CEM; test: as §3; assay type: functional; remark: listed apart in the source
[30] = test system: CCRF-CEM; test: as §4; assay type: functional; remark: listed apart in the source
[31] = test system: CCRF-CEM; test: Induction of apoptosis in human CCRF-CEM cells assessed as necrotic cells at 16 uM after 72 hrs by Annexin V/propidium iodide staining based flow cytometry (reference value: 0.11%); assay type: functional
[32] = test system: CCRF-CEM; test: Induction of apoptosis in human CCRF-CEM cells assessed as viable cells at 16 uM after 72 hrs by Annexin V/propidium iodide staining based flow cytometry (reference value: 90.4%); assay type: functional; settings: read-out: Activity
[33] = test system: CCRF-CEM; test: Induction of apoptosis in human CCRF-CEM cells assessed as early apoptotic cells at 16 uM after 72 hrs by Annexin V/propidium iodide staining based flow cytometry (reference value: 0.87%); assay type: functional
[34] = test system: CCRF-CEM; test: Induction of apoptosis in human CCRF-CEM cells assessed as late apoptotic cells at 16 uM after 72 hrs by Annexin V/propidium iodide staining based flow cytometry (reference value: 8.60%); assay type: functional
[35] = test system: CCRF-CEM; test: Induction of apoptosis in human CCRF-CEM cells at 8 uM by Annexin V-FITC/propidium iodide staining based flow cytometry; assay type: functional, cell-based; settings: TDE = time-dependent effect
[36] = test system: CCRF-CEM; test: Induction of apoptosis in human CCRF-CEM cells after 72 hrs by Annexin V-FITC/propidium iodide staining based flow cytometry; assay type: functional, cell-based
[37] = test system: CCRF-CEM; test: Cell cycle arrest in human CCRF-CEM cells assessed as accumulation of cells at sub G1 phase at 8 uM after 24 hrs by RNAse/propidium iodide staining based flow cytometry (reference value: 0.1%); assay type: functional
[38] = test system: CCRF-CEM; test: Cell cycle arrest in human CCRF-CEM cells assessed as accumulation of cells at G1/G0 phase at 8 uM after 24 hrs by RNAse/propidium iodide staining based flow cytometry (reference value: 28.3%); assay type: functional
[39] = test system: CCRF-CEM; test: Cell cycle arrest in human CCRF-CEM cells assessed as accumulation of cells at S phase at 8 uM after 24 hrs by RNAse/propidium iodide staining based flow cytometry (reference value: 46%); assay type: functional
[40] = test system: CCRF-CEM; test: Cell cycle arrest in human CCRF-CEM cells assessed as accumulation of cells at G2/M phase at 8 uM after 24 hrs by RNAse/propidium iodide staining based flow cytometry (reference value: 25.6%); assay type: functional
[41] = test system: CCRF-CEM; test: Cell cycle arrest in human CCRF-CEM cells assessed as accumulation of cells at sub G1 phase at 8 uM after 48 hrs by RNAse/propidium iodide staining based flow cytometry (reference value: 0.1%); assay type: functional
[42] = test system: CCRF-CEM; test: Cell cycle arrest in human CCRF-CEM cells assessed as accumulation of cells at G1/G0 phase at 8 uM after 48 hrs by RNAse/propidium iodide staining based flow cytometry (reference value: 28.3%); assay type: functional
[43] = test system: CCRF-CEM; test: Cell cycle arrest in human CCRF-CEM cells assessed as accumulation of cells at S phase at 8 uM after 48 hrs by RNAse/propidium iodide staining based flow cytometry (reference value: 46%); assay type: functional
[44] = test system: CCRF-CEM; test: Cell cycle arrest in human CCRF-CEM cells assessed as accumulation of cells at G2/M phase at 8 uM after 48 hrs by RNAse/propidium iodide staining based flow cytometry (reference value: 25.6%); assay type: functional
[45] = test system: CCRF-CEM; test: Cell cycle arrest in human CCRF-CEM cells assessed as accumulation of cells at sub G1 phase at 8 uM after 72 hrs by RNAse/propidium iodide staining based flow cytometry (reference value: 0.1%); assay type: functional
[46] = test system: CCRF-CEM; test: Cell cycle arrest in human CCRF-CEM cells assessed as accumulation of cells at G1/G0 phase at 8 uM after 72 hrs by RNAse/propidium iodide staining based flow cytometry (reference value: 28.3%); assay type: functional
[47] = test system: CCRF-CEM; test: Cell cycle arrest in human CCRF-CEM cells assessed as accumulation of cells at S phase at 8 uM after 72 hrs by RNAse/propidium iodide staining based flow cytometry (reference value: 46%); assay type: functional
[48] = test system: CCRF-CEM; test: Cell cycle arrest in human CCRF-CEM cells assessed as accumulation of cells at G2/M phase at 8 uM after 72 hrs by RNAse/propidium iodide staining based flow cytometry (reference value: 25.6%); assay type: functional
[49] = target: T1, c-Jun N-terminal kinase, JNK (Homo sapiens); test: Activation of JNK in human CCRF-CEM cells assessed as increase in phosphorylated JNK level at 8 uM incubated for 1 to 6 hrs by Western blot analysis; assay type: cell-based
[50] = test system: CCRF-CEM; test: Induction of apoptosis in human CCRF-CEM cells assessed as decrease in Bcl-2 level after 72 hrs by western blot analysis; assay type: functional, cell-based
[51] = test system: CCRF-CEM; test: Induction of apoptosis in human CCRF-CEM cells assessed as increase in Bax level at 8 uM by Western blot analysis; assay type: functional, cell-based; settings: TDE = time-dependent effect
[52] = test system: CCRF-CEM; test: Induction of apoptosis in human CCRF-CEM cells assessed as increase in Bax level after 72 hrs by western blot analysis; assay type: functional, cell-based
[53] = target: T2, MAP kinase p38 (Homo sapiens) (UniProt O15264+Q15759+Q16539+P53778); test: Activation of p38 in human CCRF-CEM cells assessed as increase in p38 level at 8 uM incubated for 1 to 6 hrs by Western blot analysis; assay type: cell-based
[54] = target: T2, MAP kinase p38 (Homo sapiens); test: Activation of p38 in human CCRF-CEM cells assessed as increase in phosphorylated p38 level at 8 uM incubated for 1 to 6 hrs by Western blot analysis; assay type: cell-based

Compound: O=[N+]([O-])c1ccc(O/N=[N+](\[O-])N2CCC(CN3CCN(/[N+]([O-])=N/Oc4ccc([N+](=O)[O-])cc4[N+](=O)[O-])CC3)CC2)c([N+](=O)[O-])c1
- Activity [1]: 0.38%
- Activity [2]: Active
- viability at 8 µM [3]: 61.5%
- Activity [4]: 13.8%
- Activity [5]: 24.3%
- Activity [6]: 0.072%
- viability at 8 µM [7]: 65%
- Activity [8]: 7.03%
- Activity [9]: 27.9%
- Activity [10]: 0.058%
- viability at 8 µM [11]: 43.6%
- Activity [12]: 6.51%
- Activity [13]: 49.8%
- Activity [14]: 0.11%
- Activity [15]: Tde
- viability at 8 µM [16]: 42.5%
- Activity [17]: 4.93%
- Activity [18]: 52.5%
- Activity [19]: 0.015%
- viability at 2 µM [20]: 87.5%
- Activity [21]: 3%
- Activity [22]: 9.53%
- Activity [23]: 0.028%
- viability at 4 µM [24]: 77.9%
- Activity [25]: 3.53%
- Activity [26]: 10.6%
- Activity [27]: 0.077%
- viability at 8 µM [28]: 34.8%
- Activity [29]: 8.93%
- Activity [30]: 56.2%
- Activity [31]: 0.08%
- viability at 16 µM [32]: 0.63%
- Activity [33]: 3.64%
- Activity [34]: 95.6%
- Activity [35]: Tde
- Activity [36]: Dose-dependent effect
- Activity [37]: 3.5%
- Activity [38]: 24.5%
- Activity [39]: 26.3%
- Activity [40]: 45.7%
- Activity [41]: 8.4%
- Activity [42]: 28.9%
- Activity [43]: 8.2%
- Activity [44]: 54.5%
- Activity [45]: 7.5%
- Activity [46]: 28.8%
- Activity [47]: 0%
- Activity [48]: 63.7%
- Activity [49]: Active
- Activity [50]: Dose-dependent effect
- Activity [51]: Tde
- Activity [52]: Dose-dependent effect
- Activity [53]: Active
- Activity [54]: Active
